Measured values as given in US10160762B2, “6-alkyl dihydropyrazolopyrimidinone compounds as PDE2 inhibitors” (Merck Sharp & Dohme Corp., priority 2015, dated 2018).

Molecular target: T1, human PDE2A1 (Homo sapiens, UniProt O00408)
T1 construct: GST; purchased BPS Bioscience (San Diego, Calif.) 60020; host or cells: insect cells
Test: IMAP FP PDE assay, human PDE2A1
Type: biochemical
Conditions: Lab A; read-out: Human PDE2 Ki (nM) Lab A
In short: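 GST-tagged human PDE2A1 from insect cells; substrate 50 nM FAM-cAMP containing 1000 nM cGMP in Tris pH 7.2/MgCl2/DTT buffer, enzyme giving 20% conversion. 60 min at room temperature, IMAP binding reagent, fluorescence polarization read. Apparent Ki from FP readings using apparent KM 10,000 nM; ten-point 3-fold titrations.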

T1 sequence (O00408 1-920 isoform O00408-2): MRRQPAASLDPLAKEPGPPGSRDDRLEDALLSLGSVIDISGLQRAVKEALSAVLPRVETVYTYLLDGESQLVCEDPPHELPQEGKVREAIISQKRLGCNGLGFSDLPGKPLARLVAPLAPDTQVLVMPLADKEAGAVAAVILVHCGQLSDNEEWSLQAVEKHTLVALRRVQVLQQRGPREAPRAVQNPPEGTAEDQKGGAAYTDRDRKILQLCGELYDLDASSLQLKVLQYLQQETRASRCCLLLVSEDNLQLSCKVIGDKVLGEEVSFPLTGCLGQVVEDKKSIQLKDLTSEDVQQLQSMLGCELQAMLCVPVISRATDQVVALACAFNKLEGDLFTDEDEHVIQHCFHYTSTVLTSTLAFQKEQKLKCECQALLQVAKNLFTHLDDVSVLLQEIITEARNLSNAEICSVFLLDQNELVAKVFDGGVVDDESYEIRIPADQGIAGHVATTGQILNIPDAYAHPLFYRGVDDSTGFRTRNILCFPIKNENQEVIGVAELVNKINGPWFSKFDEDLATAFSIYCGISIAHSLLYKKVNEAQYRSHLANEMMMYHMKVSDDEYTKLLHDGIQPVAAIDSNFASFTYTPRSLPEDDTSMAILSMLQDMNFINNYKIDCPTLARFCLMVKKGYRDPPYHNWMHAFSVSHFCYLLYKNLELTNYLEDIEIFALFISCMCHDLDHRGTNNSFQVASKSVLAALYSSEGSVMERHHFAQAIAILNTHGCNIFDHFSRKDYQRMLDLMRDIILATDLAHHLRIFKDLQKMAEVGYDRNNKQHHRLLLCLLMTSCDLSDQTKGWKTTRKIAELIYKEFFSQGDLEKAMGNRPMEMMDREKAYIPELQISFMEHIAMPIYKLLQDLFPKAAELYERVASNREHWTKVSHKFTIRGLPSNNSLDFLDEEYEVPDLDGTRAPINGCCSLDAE

Row | Structure (SMILES) | Ki [nM]
1 | Cc1nc2c(c(CO)nn2C(C)c2ccc(C(F)(F)F)cc2)c(=O)[nH]1 (single isomer, unassigned) [Example 26, (R)- or (S)-3-(Hydroxymethyl)-6-methyl-1-{1-[4-(trifluoromethyl)phenyl]ethyl}-1,5-dihydro-4H-pyrazolo[3,4-d]pyrimidin-4-one] | 130
2 | Cc1nc2c(c(CO)nn2C(C)c2ccc(C(F)(F)F)cc2)c(=O)[nH]1 (single isomer, unassigned) [Example 27, (S)- or (R)-3-(Hydroxymethyl)-6-methyl-1-{1-[4-(trifluoromethyl)phenyl]ethyl]-1,5-dihydro-4H-pyrazolo[3,4-d]pyrimidin-4-one] | 1.4
3 | Cc1nc2c(c(C)nn2C(C)c2ccc(C(F)(F)F)cc2)c(=O)[nH]1 (single isomer, unassigned) [Example 36] | 428
4 | Cc1nc2c(c(C)nn2C(C)c2ccc(C(F)(F)F)cc2)c(=O)[nH]1 (single isomer, unassigned) [Example 37] | 23

More lines, now with the values ahead:

Row | Ki [nM] | Structure (SMILES)
5 | < 5.1 | COc1ccc(Cc2nc3c(c(CF)nn3C(C)c3ccc(C(F)(F)F)cc3)c(=O)[nH]2)cc1OC (single isomer, unassigned) [Example 222, (R)- or (S)-6-(3,4-Dimethoxybenzyl)-3-(fluoromethyl)-1-(1-(4-(trifluoromethyl)phenyl)ethyl)-1,5-dihydro-4H-pyrazolo[3,4-d]pyrimidin-4-one]
6 | 12 | COc1ccc(Cc2nc3c(c(CF)nn3C(C)c3ccc(C(F)(F)F)cc3)c(=O)[nH]2)cc1OC (single isomer, unassigned) [Example 223, (S)- or (R)-6-(3,4-Dimethoxybenzyl)-3-(fluoromethyl)-1-(1-(4-(trifluoromethyl)phenyl)ethyl)-1,5-dihydro-4H-pyrazolo[3,4-d]pyrimidin-4-one]

Same assay, conditions: Lab B; read-out: Human PDE2 Ki (nM) Lab B

Row | Structure (SMILES) | Ki [nM]
7 | Cc1nc2c(c(CO)nn2C(C)c2ccc(OC(F)(F)F)c(F)c2)c(=O)[nH]1 (single isomer, unassigned) [Example 10, (R)- or (S)-1-(1-(3-Fluoro-4-(trifluoromethoxy)phenyl)ethyl)-3-(hydroxymethyl)-6-methyl-1H-pyrazolo[3,4-d]pyrimidin-4(5H)-one] | 50
8 | Cc1nc2c(c(CO)nn2C(C)c2ccc(OC(F)(F)F)c(F)c2)c(=O)[nH]1 (single isomer, unassigned) [Example 11, (S)- or (R)-1-(1-(3-Fluoro-4-(trifluoromethoxy)phenyl)ethyl)-3-(hydroxymethyl)-6-methyl-1H-pyrazolo[3,4-d]pyrimidin-4(5H)-one] | 1.9
9 | Cc1nc2c(c(CO)nn2C(C)c2ccc(C(F)(F)F)c(F)c2)c(=O)[nH]1 (single isomer, unassigned) [Example 12, (R)- or (S)-1-(1-(3-Fluoro-4-(trifluoromethyl)phenyl)ethyl)-3-(hydroxymethyl)-6-methyl-1H-pyrazolo[3,4-d]pyrimidin-4(5H)-one] | 205
10 | Cc1nc2c(c(CO)nn2C(C)c2ccc(C(F)(F)F)c(F)c2)c(=O)[nH]1 (single isomer, unassigned) [Example 13, (S)- or (R)-1-(1-(3-Fluoro-4-(trifluoromethyl)phenyl)ethyl)-3-(hydroxymethyl)-6-methyl-1H-pyrazolo[3,4-d]pyrimidin-4(5H)-one] | 1.7
11 | Cc1nc2c(c(CO)nn2C(C)c2ccc(C(F)(F)F)cc2)c(=O)[nH]1 (single isomer, unassigned) [Example 26, (R)- or (S)-3-(Hydroxymethyl)-6-methyl-1-{1-[4-(trifluoromethyl)phenyl]ethyl}-1,5-dihydro-4H-pyrazolo[3,4-d]pyrimidin-4-one] | 236
12 | Cc1nc2c(c(CO)nn2C(C)c2ccc(C(F)(F)F)cc2)c(=O)[nH]1 (single isomer, unassigned) [Example 27, (S)- or (R)-3-(Hydroxymethyl)-6-methyl-1-{1-[4-(trifluoromethyl)phenyl]ethyl]-1,5-dihydro-4H-pyrazolo[3,4-d]pyrimidin-4-one] | 3.4
13 | Cc1nc2c(c(CO)nn2C(c2ccc(OC(F)(F)F)cc2)C2CC2)c(=O)[nH]1 (single isomer, unassigned) [Example 94, (R)- or (S)-1-(Cyclopropyl(4-(trifluoromethoxy)phenyl)methyl)-3-(hydroxymethyl)-6-methyl-1H-pyrazolo[3,4-d]pyrimidin-4(5H)-one] | 18
14 | Cc1nc2c(c(CO)nn2C(c2ccc(OC(F)(F)F)cc2)C2CC2)c(=O)[nH]1 (single isomer, unassigned) [Example 95, (S)- or (R)-1-(Cyclopropyl(4-(trifluoromethoxy)phenyl)methyl)-3-(hydroxymethyl)-6-methyl-1H-pyrazolo[3,4-d]pyrimidin-4(5H)-one] | 2
15 | Cc1nc2c(c(CO)nn2C(c2ccc(OC(F)(F)F)c(F)c2)C(C)C)c(=O)[nH]1 (single isomer, unassigned) [Example 126, (R)- or (S)-1-(1-(3-Fluoro-4-(trifluoromethoxy)phenyl)-2-methylpropyl)-3-(hydroxyl-methyl)-6-methyl-1H-pyrazolo-[3,4-d]pyrimidin-4(5H)-one] | 5.7
16 | Cc1nc2c(c(CO)nn2C(c2ccc(OC(F)(F)F)c(F)c2)C(C)C)c(=O)[nH]1 (single isomer, unassigned) [Example 127, (S)- or (R)-1-(1-(3-Fluoro-4-(trifluoromethoxy)phenyl)-2-methylpropyl)-3-(hydroxymethyl)-6-methyl-1H-pyrazolo[3,4-d]pyrimidin-4(5H)-one] | 0.98
17 | Cc1nc2c(c(CO)nn2C(c2ccc(C(F)(F)F)c(F)c2)C(C)(C)C)c(=O)[nH]1 (single isomer, unassigned) [Example 129, (S)- or (R)-1-(1-(3-Fluoro-4-(trifluoromethyl)phenyl)-2,2-dimethylpropyl)-3-(hydroxyl-methyl)-6-methyl-1H-pyrazolo-[3,4-d]pyrimidin-4(5H)-one] | 8.9
18 | CCC(c1ccc(C(F)(F)F)cc1)n1nc(CO)c2c(=O)[nH]c(C)nc21 (single isomer, unassigned) [Example 132, (R)- or (S)-3-(Hydroxymethyl)-6-methyl-1-(1-(4-(trifluoro-methyl)phenyl)propyl)-1H-pyrazolo[3,4-d]pyrimidin-4(5H)-one] | 1.1
19 | Cc1nc2c(c(C(F)F)nn2C(C)c2ccc(C(F)(F)F)cc2)c(=O)[nH]1 (single isomer, unassigned) [Example 176] | 1.3
20 | Cc1nc2c(c(C(F)F)nn2C(C)c2ccc(OC(F)F)cc2)c(=O)[nH]1 (single isomer, unassigned) [Example 182, (S)- or (R)-1-(1-(4-(Difluoromethoxy)phenyl)ethyl)-3-(difluoromethyl)-6-methyl-1H-pyrazolo[3,4-d]pyrimidin-4(5H)-one] | 0.84
21 | COc1ccc(Cc2nc3c(c(C(F)F)nn3C(C)c3ccc(C(F)(F)F)cc3)c(=O)[nH]2)cc1OC (single isomer, unassigned) [Example 196] | 61
22 | COc1ccc(Cc2nc3c(c(C(F)F)nn3C(C)c3ccc(C(F)(F)F)cc3)c(=O)[nH]2)cc1OC (single isomer, unassigned) [Example 197] | 0.23
23 | Cc1nc2c(c(CF)nn2C(C)c2ccc(S(F)(F)(F)(F)F)cc2)c(=O)[nH]1 (single isomer, unassigned) [Example 200] | 2
24 | Cc1nc2c(c(CF)nn2C(C)c2ccc(OC(F)(F)F)cc2)c(=O)[nH]1 (single isomer, unassigned) [Example 206, (R)- or (S)-3-(Fluoromethyl)-6-methyl-1-(1-(4-(trifluoro-methoxy-)phenyl)ethyl)-1H-pyrazolo[3,4-d]pyrimidin-4(5H)-one] | 83

Now from value to compound:

Row | Ki [nM] | Structure (SMILES)
25 | 1.1 | Cc1nc2c(c(CF)nn2C(C)c2ccc(OC(F)(F)F)cc2)c(=O)[nH]1 (single isomer, unassigned) [Example 207, (S)- or (R)-3-(Fluoromethyl)-6-methyl-1-(1-(4-(trifluoromethoxy)phenyl)ethyl)-1H-pyrazolo[3,4-d]pyrimidin-4(5H)-one]
26 | 0.99 | Cc1nc2c(c(CF)nn2C(c2ccc(C(F)(F)F)cc2)C2(C)CC2)c(=O)[nH]1 (single isomer, unassigned) [Example 209]
27 | 0.65 | Cc1nc2c(c(CF)nn2C(C)c2ccc(CC(F)(F)F)cc2)c(=O)[nH]1 (single isomer, unassigned) [Example 211, (S)- or (R)-3-(Fluoromethyl)-6-methyl-1-(1-(4-(2,2,2-trifluoroethyl)phenyl)ethyl)-1H-pyrazolo[3,4-d]pyrimidin-4(5H)-one]
28 | 43 | Cc1nc2c(c(CF)nn2C(c2ccc(C(F)(F)F)cc2)C(C)C)c(=O)[nH]1 (single isomer, unassigned) [Example 212, (R)- or (S)-3-(Fluoromethyl)-6-methyl-1-(2-methyl-1-(4-(trifluoromethyl)phenyl)propyl)-1H-pyrazolo[3,4-d]pyrimidin-4(5H)-one]
29 | 0.19 | Cc1nc2c(c(CF)nn2C(c2ccc(C(F)(F)F)cc2)C(C)C)c(=O)[nH]1 (single isomer, unassigned) [Example 213, (S)- or (R)-3-(Fluoromethyl)-6-methyl-1-(2-methyl-1-(4-(trifluoromethyl)phenyl)propyl)-1H-pyrazolo[3,4-d]pyrimidin-4(5H)-one]
30 | 307 | Cc1nc2c(c(CF)nn2C(C)c2ccc(C(C)(C)C)cc2)c(=O)[nH]1 (single isomer, unassigned) [Example 214, (R)- or (S)-1-(1-(4-tert-Butylphenyl)ethyl)-3-(fluoromethyl)-6-methyl-1H-pyrazolo[3,4-d]pyrimidin-4(5H)-one]
31 | 0.48 | Cc1nc2c(c(CF)nn2C(C)c2ccc(C(C)(C)C)cc2)c(=O)[nH]1 (single isomer, unassigned) [Example 215, (S)- or (R)-1-(1-(4-tert-Butylphenyl)ethyl)-3-(fluoromethyl)-6-methyl-1H-pyrazolo[3,4-d]pyrimidin-4(5H)-one]
32 | 36 | Cc1nc2c(c(CF)nn2C(C)c2ccc(OC(F)(F)F)c(F)c2)c(=O)[nH]1 (single isomer, unassigned) [Example 216, (R)- or (S)-1-(1-(3-Fluoro-4-(trifluoromethoxy)phenyl)ethyl)-3-(fluoromethyl)-6-methyl-1H-pyrazolo[3,4-d]pyrimidin-4(5H)-one]
33 | 0.7 | Cc1nc2c(c(CF)nn2C(C)c2ccc(OC(F)(F)F)c(F)c2)c(=O)[nH]1 (single isomer, unassigned) [Example 217, (S)- or (R)-1-(1-(3-Fluoro-4-(trifluoromethoxy)phenyl)ethyl)-3-(fluoromethyl)-6-methyl-1H-pyrazolo[3,4-d]pyrimidin-4(5H)-one]
34 | 0.34 | COc1ccc(Cc2nc3c(c(CF)nn3C(C)c3ccc(C(F)(F)F)cc3)c(=O)[nH]2)cc1OC (single isomer, unassigned) [Example 222, (R)- or (S)-6-(3,4-Dimethoxybenzyl)-3-(fluoromethyl)-1-(1-(4-(trifluoromethyl)phenyl)ethyl)-1,5-dihydro-4H-pyrazolo[3,4-d]pyrimidin-4-one]
